# Source: US4698352A, “4-oxo-1,4-dihydronicotinic acid derivatives, salts thereof, and antibacterial agents containing the same” (Toyama Chemical Co., Ltd., priority 1982, dated 1987)
# Read-outs that look alike come from different tables or passages of the source.
# Tests used:
# Experiment in all cases: Antibacterial activity (MIC), agar dilution
# Format in all cases: cell-based
# [1] = system: St. aureus F-137*; conditions: Staphylococcus aureus, 20 h, St. aureus F-137, penicillinase-producing; 10^6 cells per ml; read-out: MIC
# Excerpt: (§1) The amount of bacteria inoculated was 10^4 cells per plate (10^6 cells per ml).
# (§2) * Penicillinase-producing bacteria
# [2] = system: E. coli TK-3*; conditions: Escherichia coli, 20 h, E. coli TK-3, penicillinase-producing; 10^6 cells per ml; read-out: MIC
# Excerpt: as §1, §2
# [3] = system: Ps. aeruginosa GN3379*; conditions: Pseudomonas aeruginosa, Ps. aeruginosa GN3379, penicillinase-producing, 10^6 cells per ml
# Excerpt: as §1, §2
# [4] = system: Kl. pneumoniae Y-4*; conditions: Klebsiella pneumoniae, 20 h, Kl. pneumoniae Y-4, penicillinase-producing, 10^6 cells per ml
# Excerpt: as §1, §2
# [5] = system: Pro. vulgaris GN76**; conditions: Proteus vulgaris, 20 h; Pro. vulgaris GN76, cephalospolinase-producing; 10^6 cells per ml; read-out: MIC
# Excerpt: as §1
# (§3) ** Cephalospolinase-producing bacteria
# [6] = system: E. coli GN5482**; conditions: Escherichia coli, 20 h; E. coli GN5482, cephalospolinase-producing; 10^6 cells per ml; read-out: MIC
# Excerpt: as §1, §3
# [7] = system: Ps. aeruginosa GN918**; conditions: Pseudomonas aeruginosa, Ps. aeruginosa GN918, cephalospolinase-producing, 10^6 cells per ml
# Excerpt: as §1, §3
# [8] = system: Pro. mirabilis T-111; conditions: Proteus mirabilis, 37° C.
# Excerpt: as §1
# [9] = system: Kl. pneumoniae Y-50; conditions: Klebsiella pneumoniae, Y50, 20 h, 10^6 cells per ml, 37° C., read-out: MIC
# Excerpt: as §1
# [10] = system: Ps. aeruginosa IFO3445; conditions: Pseudomonas aeruginosa
# Excerpt: as §1
# [11] = system: Ent. cloacae IID977; conditions: Enterobacter cloacae, IID977, 20 h, Ent. cloacae IID977; 10^6 cells per ml; 37° C., 20 hours; read-out: MIC
# Excerpt: as §1
# [12] = system: E. coli TK-111; conditions: Escherichia coli, TK111, 20 h, E. coli TK-111; 10^6 cells per ml; 37° C., 20 hours; read-out: MIC
# Excerpt: as §1
# [13] = system: St. aureus FDA209P; conditions: Staphylococcus aureus, FDA209P, 20 h, St. aureus FDA209P; 10^6 cells per ml; 37° C., 20 hours; read-out: MIC
# Excerpt: as §1
# [14] = system: Kl. pneumoniae Y-41; conditions: Klebsiella pneumoniae, Y41, 10^6 cells per ml, 37° C., 20 hours, read-out: MIC
# Excerpt: as §1
# [15] = system: Ps. aeruginosa S-68; conditions: Pseudomonas aeruginosa
# Excerpt: as §1
# [16] = system: Pro. vulgaris GN3027; conditions: Proteus vulgaris, GN3027, 20 h, Pro. vulgaris GN3027; 10^6 cells per ml; 37° C., 20 hours; read-out: MIC
# Excerpt: as §1
# [17] = system: E. coli NIHJ JC-2; conditions: Escherichia coli, NIHJJC2, 20 h, E. coli NIHJ JC-2; 10^6 cells per ml; 37° C., 20 hours; read-out: MIC
# Excerpt: as §1
# [18] = system: Aci. antitratus A-6; conditions: 20 h, Aci. antitratus A-6; 10^6 cells per ml; 37° C., 20 hours; read-out: MIC
# Excerpt: as §1
# [19] = system: Pro. morganii T-216; conditions: Morganella morganii, 37° C.
# Excerpt: as §1
# [20] = Ps. aeruginosa IFO3445, 10^6 cells per ml, 37° C., 20 hours, read-out: MIC
# [21] = S68, Ps. aeruginosa S-68, 10^6 cells per ml, 37° C., 20 hours, read-out: MIC
# [22] = T216, 10^6 cells per ml, 20 hours, read-out: MIC
SMILES,MIC [1],MIC [2],"MIC ([3]; 20 h, read-out: MIC)",MIC ([4]; read-out: MIC),MIC [5],MIC [6],"MIC ([7]; 20 h, read-out: MIC)","MIC ([8]; T111, 20 h, 10^6 cells per ml)",MIC [9],"MIC [10, 20]",MIC [11],MIC [12],MIC [13],MIC [14],"MIC [15, 21]",MIC [16],MIC [17],MIC [18],"MIC ([19]; T216, 20 h, 10^6 cells per ml)","MIC [19, 22]",other results
Cc1cc(O)ccc1-n1cc(C(=O)O)c(=O)cc1-c1ccc2[nH]ccc2c1,0.1 µg/mL,0.39 µg/mL,25 µg/mL,1.56 µg/mL,0.78 µg/mL,≤ 0.05 µg/mL,3.13 µg/mL,1.56 µg/mL,0.2 µg/mL,6.25 µg/mL,0.78 µg/mL,0.1 µg/mL,0.1 µg/mL,0.78 µg/mL,6.25 µg/mL,0.2 µg/mL,0.39 µg/mL,3.13 µg/mL,1.56 µg/mL,–,–
COc1ccc(-c2cc(=O)c(C(=O)O)cn2-c2ccc(O)cc2C)cc1F,0.1 µg/mL,0.39 µg/mL,12.5 µg/mL,1.56 µg/mL,0.39 µg/mL,≤ 0.05 µg/mL,–,1.56 µg/mL,0.78 µg/mL,12.5 µg/mL,0.39 µg/mL,≤ 0.05 µg/mL,0.1 µg/mL,1.56 µg/mL,6.25 µg/mL,0.1 µg/mL,0.39 µg/mL,0.39 µg/mL,1.56 µg/mL,–,"MIC ([7]; GN918, 20 h): 1.56 µg/mL"
Cc1cc(O)ccc1-n1cc(C(=O)O)c(=O)cc1/C=C/c1ccccc1,0.2 µg/mL,0.39 µg/mL,6.25 µg/mL,3.13 µg/mL,0.39 µg/mL,≤ 0.05 µg/mL,1.56 µg/mL,3.13 µg/mL,0.39 µg/mL,25 µg/mL,1.56 µg/mL,0.2 µg/mL,0.1 µg/mL,3.13 µg/mL,–,0.1 µg/mL,0.39 µg/mL,0.1 µg/mL,–,1.56 µg/mL,"MIC ([15]; S68, 20 h): 3.13 µg/mL"
O=C(O)c1cn(-c2ccc(O)cc2)c(-c2ccc(-n3cccc3)cc2)cc1=O,0.1 µg/mL,0.39 µg/mL,3.13 µg/mL,1.56 µg/mL,0.78 µg/mL,≤ 0.05 µg/mL,–,1.56 µg/mL,0.39 µg/mL,3.13 µg/mL,0.78 µg/mL,≤ 0.05 µg/mL,0.1 µg/mL,1.56 µg/mL,3.13 µg/mL,0.2 µg/mL,0.1 µg/mL,0.1 µg/mL,1.56 µg/mL,–,"MIC ([7]; GN918, 20 h): 1.56 µg/mL"
O=C(O)c1cn(-c2ccc(O)cc2)c(-c2ccc(-c3ccccn3)s2)cc1=O,0.2 µg/mL,0.78 µg/mL,–,3.13 µg/mL,0.78 µg/mL,≤ 0.05 µg/mL,1.56 µg/mL,3.13 µg/mL,0.78 µg/mL,–,1.56 µg/mL,≤ 0.05 µg/mL,0.2 µg/mL,3.13 µg/mL,–,0.1 µg/mL,0.39 µg/mL,0.78 µg/mL,–,1.56 µg/mL,"MIC ([3]; GN3379, 20 h): 3.13 µg/mL; MIC ([10]; IFO3445, 20 h): 3.13 µg/mL; MIC ([15]; S68, 20 h): 3.13 µg/mL"
Cc1cc(O)ccc1-n1cc(C(=O)O)c(=O)cc1-c1ccc(N(C)C)cc1,≤ 0.05 µg/mL,0.2 µg/mL,3.13 µg/mL,–,0.39 µg/mL,≤ 0.05 µg/mL,1.56 µg/mL,–,0.2 µg/mL,3.13 µg/mL,0.39 µg/mL,≤ 0.05 µg/mL,≤ 0.05 µg/mL,0.78 µg/mL,3.13 µg/mL,0.1 µg/mL,0.1 µg/mL,0.1 µg/mL,–,0.78 µg/mL,"MIC [4]: 0.78 µg/mL; MIC ([8]; T111, 10^6 cells per ml, 20 hours, read-out: MIC): 0.78 µg/mL"
